Measured values as given in PubChem BioAssay AID1053144 (Broad Institute, 2014).

system: NPC TCF/LEF luciferase reporter, Wnt3a EC25, 24 h; assay: Wnt/beta-catenin signaling activators, dose response, cell-based, iPS-derived NPC, luciferase, Wnt3a, cherry-pick (AID 1053144);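 also: Wnt3a stimulus is conditioned medium from Wnt3a-transfected mouse L cells at 5% in well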

Cc1cccc(NC(=O)c2ccccn2)c1C and Nc1ccccc1NC(=O)c1ccccc1 are within 1.5-fold of each other in AC30: 11.4 µM for the first, 8.77 µM for the second.

Compared with CC1CC1C(=O)OCc1cc(=O)n2cc(Br)ccc2n1 (configuration not stated), O=C(OCC(=O)c1ccc(Br)s1)c1ccc(O)cc1 is 1.7-fold higher in AC30: 9.48 µM for the first, 15.8 µM for the second.

First: O=C(/C=C/c1ccco1)NCCc1ccccc1
Second: O=C(Nc1ccc2nc(-c3ccccc3)[nH]c2c1)c1ccco1
The AC30 of the first is 3.3-fold lower: 5.05 µM for the first, 16.9 µM for the second.

First: O=C(c1ccccc1)c1ccc2nc(-c3ccco3)c(-c3ccco3)nc2c1
Second: O=C(O)c1ccc(/C=C(\c2nc3ccccc3[nH]2)c2nc3ccccc3s2)cc1
The AC30 of the first is 1.9-fold lower: 8.23 µM for the first, 15.8 µM for the second.

O=C(CCc1nnc(C2CCCCC2)o1)N1CCN(c2ccccc2F)CC1 and O=C(NCCN1CCOCC1)c1cc(-c2ccccc2)on1 are within 1.5-fold of each other in AC30: 8.97 µM for the first, 8.01 µM for the second.

Going from O=C(O)c1ccc2c(c1)C(=O)N(c1ccc(/C=C/C(=O)c3ccccc3)cc1)C2=O to O=C(/C=C/c1ccccc1)c1c[nH]c2ccccc12, the AC30 falls from 18.7 µM to 4.78 µM (3.9-fold).

Compared with O=C(NCCc1c[nH]c2ccccc12)c1cc2ccccc2oc1=O, O=c1oc2ccccc2cc1-c1nc2ccccc2o1 is 1.6-fold lower in AC30: 13.4 µM for the first, 8.58 µM for the second.

CCOc1cc(/C=N/NC(=O)N/N=C/c2ccc(O)c(OCC)c2)ccc1O and CCOCC(=O)Nc1nc2ccc(OCC)cc2s1 are within 1.5-fold of each other in AC30: 13.1 µM for the first, 11.8 µM for the second.

Going from COc1ccc(NC(=O)n2ncc3c(C)cccc32)cc1 to COC(=O)CCc1sc(Nc2ccccc2)nc1-c1ccc(OC)cc1, the AC30 rises from 4.78 µM to 12.9 µM (2.7-fold).

First: Cc1ccc(COc2ccc3c(c2)OCO3)cc1
Second: Cc1ccsc1/C=N\NC(=O)c1ccc2c(c1)OCO2
The AC30 of the first is 3.6-fold higher: 17 µM for the first, 4.78 µM for the second.

Going from CC(=O)Nc1ccc2nc3ccccc3nc2c1 to Fc1ccc2nc3[nH]c4ccccc4c3nc2c1, the AC30 falls from 15.3 µM to 8.76 µM (1.7-fold).

Going from COc1ccc(C(=O)COC(=O)c2sccc2C)cc1OC to COc1ccccc1C(=O)O/N=C(\N)c1ccc(Cl)cc1, the AC30 falls from 11.8 µM to 6.87 µM (1.7-fold).

C(=C\c1nc(-c2cccnc2)no1)/c1ccccc1 and Nc1c2ccccc2nc2ccccc12 are within 1.5-fold of each other in AC30: 4.78 µM for the first, 5.99 µM for the second.

Compared with O=C(CCCCCCC(=O)Nc1ccccc1)NO, CCCCOC(=O)Nc1ccc(C(=O)OC)cc1 is 8-fold higher in AC30: 1.47 µM for the first, 11.7 µM for the second.

Going from CC1(C)CC(=O)/C(=N/Nc2ccc(Cl)cc2)CO1 to C=CCNC(=O)c1ccc2c3n(nc2c1)-c1ccc(Cl)cc1CO3, the AC30 rises from 4.78 µM to 9.82 µM (2.1-fold).

CCn1c(SCC(=O)c2ccc(Cl)cc2)nnc1C(C)C and Clc1ccc(SCc2cn3ccsc3n2)cc1 are within 1.5-fold of each other in AC30: 12.1 µM for the first, 8.8 µM for the second.

COCCNC(=O)c1cc(-c2cccs2)on1 and Cn1c(CCNC(=O)c2ccco2)nc2cc(NC(=O)c3ccco3)ccc21 are within 1.5-fold of each other in AC30: 16.9 µM for the first, 11.8 µM for the second.

O=C(Cc1nc2ccccc2[nH]1)c1ccc([N+](=O)[O-])cc1 and Cc1ccc(C(=O)NNc2ncnc3ccccc23)cc1 are within 1.5-fold of each other in AC30: 7.12 µM for the first, 8.88 µM for the second.

Compared with O=C(Nc1ccccc1O)c1ccc(NS(=O)(=O)c2cccc3cccnc23)cc1, Cc1cccc(NC(=O)c2c(O)c3ccccc3[nH]c2=O)c1 is 1.9-fold higher in AC30: 3.53 µM for the first, 6.72 µM for the second.

First: COc1ccc2cc(-c3ccn[nH]3)ccc2c1
Second: COc1ccc2c(c1)c(/C=N/Nc1nc3ccccc3[nH]1)c(C)n2C
The AC30 of the first is 2.5-fold lower: 4.78 µM for the first, 12.1 µM for the second.

CN(C)S(=O)(=O)Oc1cccc(C(=O)Nc2cccc(Cl)c2)c1 and COc1ccc(NC(=O)c2ccccc2NC(=O)C2CCCCC2C(=O)O)cc1 (configuration not stated) are within 1.5-fold of each other in AC30: 13 µM for the first, 19.3 µM for the second.

O=C(Nn1cnc2ccccc2c1=O)c1c(F)cccc1F and O=c1c2cccc(Cl)c2nc2n1Cc1ccccc1-2 are within 1.5-fold of each other in AC30: 18.8 µM for the first, 16.7 µM for the second.

CCNc1nc(N)c(C(=O)c2ccc(Cl)s2)s1 and COc1ccc(C(=O)NC2=NCCS2)cc1 are within 1.5-fold of each other in AC30: 11.3 µM for the first, 9.19 µM for the second.

First: Nc1ccc(N=Nc2ccccc2Cl)c(N)n1
Second: O=C(NCCO)c1ccc2c3n(nc2c1)-c1ccc(Cl)cc1CO3
The AC30 of the first is 2.8-fold lower: 4.42 µM for the first, 12.3 µM for the second.

First: CCc1cc2c(=O)[nH]c(-c3ccccn3)nc2s1
Second: O=C(Nc1ncccc1O)c1ccc2c(c1)OCCO2
The AC30 of the first is 2-fold higher: 10.2 µM for the first, 5.13 µM for the second.

CCOc1ccc(-c2nnc(-c3ccccc3)n2-c2ccccc2)cc1 and CCOC(=O)C(NC(=O)c1ccc(F)cc1)(Nc1sc2c(c1C(N)=O)CCC2)C(F)(F)F (configuration not stated) are within 1.5-fold of each other in AC30: 12.4 µM for the first, 16.3 µM for the second.
